Experimental findings from US20250154173A1 (Merck Sharp & Dohme LLC, priority 2023, published 2025) are described below.

SMILES strings stand for the structures.

The target of the experiment is T1, GST-RIPK1 (recombinant GST-RIPK1 kinase domain (residues 1-327)) (Homo sapiens, UniProt Q13546).
T1 construct: recombinant GST-RIPK1 kinase domain (residues 1-327) enzyme produced from baculovirus-transfected Sf21 cells; host or cells: baculovirus-transfected Sf21 insect cells
T1 sequence (Q13546 1-327): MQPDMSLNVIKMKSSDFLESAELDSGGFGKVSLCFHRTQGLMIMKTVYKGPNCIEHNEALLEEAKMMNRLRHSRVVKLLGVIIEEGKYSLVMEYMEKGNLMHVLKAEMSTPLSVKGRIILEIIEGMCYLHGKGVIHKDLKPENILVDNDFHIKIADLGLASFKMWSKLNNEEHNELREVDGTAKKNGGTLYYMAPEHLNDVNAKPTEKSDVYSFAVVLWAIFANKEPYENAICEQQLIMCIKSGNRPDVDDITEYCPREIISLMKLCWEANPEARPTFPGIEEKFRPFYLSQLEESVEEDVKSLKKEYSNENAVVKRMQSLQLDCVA
In words: RIPK1-ADP-Glo Enzymatic Assay. In kind it is biochemical. Conditions: ten-point titration, top compound concentration of 100000 nM; 25 nM GST-RIPK1, 300 μM ATP, 3 μM dephosphorylated-MBP; 30 min pre-incubation, 150 min reaction. The method in brief:
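ADP-Glo luminescence quantifies ADP formed over 150 minutes by 25 nM Sf21-produced GST-RIPK1 (1-327) using 300 μM ATP and 3 μM dephosphorylated MBP, following 30-minute compound preincubation at 1% DMSO. Ten-point 1:3 series from 100000 nM gave EC50 via four-parameter sigmoidal regression.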

A word on the EC50: it is the concentration giving half of the maximal effect.

Consider `CC(OC1CC2(C1)OC1CCC(c3cc(F)cc(F)c3)N1C2=O)c1ccccc1` (single isomer, unassigned) [Example 15.4, ((1R or S),3R,5′S,7a′R)-5′-(3,5-difluorophenyl)-3-((R or S)-1-phenylethoxy)tetrahydro-3′H-spiro[cyclobutane-1,2′-pyrrolo[2,1-b]oxazol]-3′-one], for which the EC50 came out at 19 nM.

In the case of `O=C1N2[C@@H](CC[C@H]2c2cnccn2)OC12CC(OCc1csc3ncccc13)C2` (stereo partly drawn) [Example 19.19, (5′S,7a′R)-5′-(pyrazin-2-yl)-3-[(thieno[2,3-b]pyridin-3-yl)methoxy]tetrahydro-3′H-spiro[cyclobutane-1,2′-pyrrolo[2,1-b][1,3]oxazol]-3′-one], the EC50 is 27 nM.

Regarding `O=C1N2[C@@H](CC[C@H]2c2cnccn2)OC12CC(OCc1cccc(F)c1)C2` (single isomer, unassigned) [Example 22.5], the EC50 was found to be 15 nM.

On to `O=C1N2C(CC[C@H]2c2cnccn2)OC12CC(OCc1cnc(N3CCOCC3)nc1)C2` (stereo partly drawn) [Example 18.24, (5′S)-3-{[2-(morpholin-4-yl)pyrimidin-5-yl]methoxy}-5′-(pyrazin-2-yl)tetrahydro-3′H-spiro[cyclobutane-1,2′-pyrrolo[2,1-b][1,3]oxazol]-3′-one], for which the EC50 came out at 310 nM.

On to `O=C1N2C(CC[C@H]2c2cnccn2)OC12CC(OCc1cc(-n3ccnc3)ccn1)C2` (some centres unmarked) [Example 18.39], for which the EC50 was 301 nM.

In the case of `Cc1cc(Cl)cnc1COC1CC2(C1)O[C@@H]1CC[C@@H](c3cnccn3)N1C2=O` (stereo partly drawn) [Example 22.3, (5′S,7a′R)-3-((5-chloro-3-methylpyridin-2-yl)methoxy)-5′-(pyrazin-2-yl)tetrahydro-3′H-spiro[cyclobutane-1,2′-pyrrolo[2,1-b]oxazol]-3′-one], the EC50 turned out to be 33 nM.

As to `O=C1N2[C@@H](CC[C@H]2c2cnccn2)OC12CC(OCc1ccc3scnc3c1)C2` (stereo partly drawn) [Example 20.7, (5′S,7a′R)-3-[(1,3-benzothiazol-5-yl)methoxy]-5′-(pyrazin-2-yl)tetrahydro-3′H-spiro[cyclobutane-1,2′-pyrrolo[2,1-b][1,3]oxazol]-3′-one], the EC50 amounted to 86 nM.

In the case of `Cn1ccc([C@@H]2CC[C@H]3O[C@]4(C[C@@H](Oc5cccc(C#N)c5)C4)C(=O)N32)n1` [Example 19.6, 3-{[(1s,3S,5′S,7a′R)-5′-(1-methyl-1H-pyrazol-3-yl)-3′-oxotetrahydro-3′H-spiro[cyclobutane-1,2′-pyrrolo[2,1-b][1,3]oxazol]-3-yl]oxy}benzonitrile], the EC50 is 203 nM.

As for `O=C1N2[C@@H](CC[C@H]2c2cc(F)cc(F)c2)O[C@]12C[C@H](Oc1ncnc3occc13)C2` [Example 9.31, (1r,3R,5′S,7a′R)-5′-(3,5-difluorophenyl)-3-[(furo[2,3-d]pyrimidin-4-yl)oxy]tetrahydro-3′H-spiro[cyclobutane-1,2′-pyrrolo[2,1-b][1,3]oxazol]-3′-one], the EC50 was determined as 9 nM.

Consider `O=C1N2[C@@H](CC[C@H]2c2ccccc2)OC12CC(Oc1nccc3nccn13)C2` (stereo partly drawn) [Example 8.20, (5′S,7a′R)-3-[(imidazo[1,2-c]pyrimidin-5-yl)oxy]-5′-phenyltetrahydro-3′H-spiro[cyclobutane-1,2′-pyrrolo[2,1-b][1,3]oxazol]-3′-one], for which the EC50 was determined as 20 nM.

`Cc1ccc(OC2CC3(C2)O[C@@H]2CC[C@@H](c4ccn(C)n4)N2C3=O)cn1` (stereo partly drawn) [Example 19.12, (5′S,7a′R)-5′-(1-methyl-1H-pyrazol-3-yl)-3-[(6-methylpyridin-3-yl)oxy]tetrahydro-3′H-spiro[cyclobutane-1,2′-pyrrolo[2,1-b][1,3]oxazol]-3′-one]: the EC50 stood at 790 nM.
